Data taken from patent US20210106550A1, “COMPOSITIONS FOR PREVENTING OR TREATING COGNITIVE IMPAIRMENT-RELATED DISEASE COMPRISING MUMEFURAL” (KOREA INSTITUTE OF ORIENTAL MEDICINE, priority 2018, published 2021).

Columns and labels:
Format in all cases: in vivo, Wistar rats
astrocytes = assay: immunohistostaining of GFAP (astrocytes) in hippocampus and white matter
Procedure: (§1) Specifically, 12-week-old Wister rats (350 g to 380 g) were used for the experiments. After obtaining the experimental animals, appearance was visually inspected and then normal symptoms were observed during a 7-day acclimation period. Healthy animals were selected therefrom and assigned to groups by a random method according to body weight ranges, and then experiments were performed. During the acclimation and experiment, a constant breeding environment was maintained under the conditions of a temperature of 23±3° C., a relative humidity of 50±10%, a ventilation frequency of 12 times to 16 times per hour, a 12-hour light-dark cycle (light on at 7:00, light off at 19:00), and an intensity of illumination of 150 Lx to 300 Lx. Experiments were performed using sterilized instruments, and the rats were allowed free access to tap water and a solid feed (PMI nutrition, USA) for 24 hours.
(§2) In order to construct a vascular dementia-mimic animal model, chronic cerebral hypoperfusion was induced by bilateral common carotid artery occlusion (2VO, hereinafter referred to as “brain damage (BCCA0)”) (Wakita et al., 1994). The rats were anesthetized with 4% isoflurane, and the anesthesia was maintained by 1.5% isoflurane during the operation. The central neck was incised to expose the bilateral common carotid artery carefully so as not to cause damage to the vagal nerve. Ligation was performed twice with No. 3 silk, thereby constructing an animal model in which dementia was induced by brain damage.
After 21 days from the BCCA0 operation, the Wistar rats were orally administered with mumefural for 42 days. The rats were divided into 5 groups listed in Table 1 below, and controls were orally administered with saline. […]
(§3) In order to investigate effects of mumefural on normalization of damaged hippocampus and corpus callosum of white matter in the dementia-mimic animal model, mumefural was administered in the same manner as in Example 1, and then microglia and astrocytes were detected in the hippocampus and white matter to identify gliosis. […]

microglia = assay: immunohistostaining of lba-1 (microglia) in hippocampus and white matter; settings: compared with the negative control
Procedure: as §1, with “hours. […]” for “hours.”
as §3

[1] = test system: PSD-95 and synaptophysin-1 proteins; assay: western blot of synaptic markers in hippocampus; settings: compared with the negative control; FIGS. 11A, 11B
Procedure: as §1, with “Experiments were performed using sterilized instruments, and the rats were allowed free access to tap water and a solid feed (PMI nutrition, USA) for 24 hours.” left out
In order to investigate effects of mumefural on normalization of synaptic markers in the dementia-mimic animal model, mumefural was administered in the same manner as in Example 1, and then expression levels of PSD-95 and synaptophysin-1 proteins in the hippocampus were analyzed.
Specifically, the hippocampus was excised from each of the dementia-mimic rats after administration of mumefural was completed, and the proteins were extracted therefrom. Expression levels of the PSD-95 and synaptophysin-1 proteins were analyzed by western blotting. β-Actin was used as a loading control.

[2] = test system: myelin basic protein (MBP); assay: immunohistostaining of MBP protein (degraded myelin) in white matter and hippocampus; settings: compared with the negative control, FIGS. 9A, 9B
Procedure: (§4) Specifically, 12-week-old Wister rats (350 g to 380 g) were used for the experiments. After obtaining the experimental animals, appearance was visually inspected and then normal symptoms were observed during a 7-day acclimation period. Healthy animals were selected therefrom and assigned to groups by a random method according to body weight ranges, and then experiments were performed. […]
In order to investigate the effects on normalization of degraded myelin in the dementia-mimic animal model, mumefural was administered in the same manner as in Example 1 above, and then degradation degrees of oligodendrocytes was analyzed in the hippocampus, fornix, medial septum, corpus callosum, and fimbria hippocampi.
Specifically, the brain was excised from each of the dementia-mimic rats after administration of mumefural was completed and sectioned into slices with a thickness of 40 μm. Subsequently, oligodendrocytes in the hippocampus, white matter fornix, medial septum, corpus callosum, and fimbria hippocampi were detected using myelin basic protein (MBP) that is expressed in the myelin sheath of axons by oligodendrocytes. The slices were stained by immunohistostaining using anti-MBP antibody as a primary antibody and horse anti-mouse antibody as a secondary antibody, and anti-MBP positive cell responses were detected.

[3] = test system: NMDAR2A and NMDAR2B proteins; assay: western blot of post-synaptic receptors in hippocampus; settings: compared with the negative control; FIGS. 12A, 12B
Procedure: as §4
In order to investigate effects of mumefural on normalization of damaged hippocampus in the dementia-mimic animal model, mumefural was administered in the same manner as in Example 1, and then amounts of post-synaptic receptors in the hippocampus were analyzed by examining expression levels of N-methyl-D-aspartate receptor 2A (NMDAR2A) and N-methyl-D-aspartate receptor 2B (NMDAR2B) proteins.
Specifically, the hippocampus was excised from each of the dementia-mimic rats after administration of mumefural was completed, and the proteins were extracted therefrom. Expression levels of the NMDAR2A and NMDAR2B proteins were analyzed by western blotting. β-Actin was used as a loading control.

[4] = test system: P2X7R, TLR4, MyD88, NLRP3, caspase1, IL-1β, IL-18, phospho-STAT3, and NF-κB (p65, p50) proteins; assay: western blot of neurological inflammation proteins in hippocampus
Procedure: as §1, §2
After 21 days from the BCCA0 operation, the Wistar rats were orally administered with mumefural for 42 days. The rats were divided into 5 groups listed in Table 1 below, and controls were orally administered with saline. Different concentrations of mumefural were set in the oral administration as low concentration (20 mg/kg), medium concentration (40 mg/kg), and high concentration (80 mg/kg).
In order to investigate effects of mumefural on reduction of neurological inflammation in the dementia-mimic animal model, mumefural was administered in the same manner as in Example 1, and then expression levels of P2X purinoceptor 7 (P2X7R), toll-like receptor 4 (TLR4), myeloid differentiation primary response 88 (MyD88), nucleotide-binding oligomerization domain-like receptor protein 3 (NLRP3), caspase1, interleukin (IL)-1β, IL-18, phospho-signal transducer and activator of transcription 3 (phospho-STAT3), and NF-κB (p65, p50) proteins were measured in the hippocampus. Meanwhile, these proteins provoke inflammation of nerve cells, causing damage to the brain and resulting in diseases such as dementia.
Specifically, the hippocampus was excised from each of the dementia-mimic rats after administration of mumefural was completed, and proteins were extracted therefrom. Expression levels of the proteins were analyzed by western blotting. β-Actin and LaminB1 were used as loading controls.

[5] = western blot, compared to the negative control, FIGS. 17A, 17B

Structure (SMILES): O=Cc1ccc(COC(=O)CC(O)(CC(=O)O)C(=O)O)o1 (centres unmarked) [mumefural]
- numbers of astrocytes, effect vs normal control (astrocytes; 20 mg/kg, 40 mg/kg, and 80 mg/kg oral, hippocampus and white matter): effects similar to or superior to those of the normal control
- numbers of astrocytes (GFAP positive cells) in the hippocampus (astrocytes; compared with the negative control, FIGS. 16A, 16B): significantly decreased
- numbers of astrocytes (GFAP positive cells) in the white matter (astrocytes; compared with the negative control, FIGS. 16C, 16D): significantly decreased
- numbers of microglia (lba-1 positive cells) in the hippocampus (microglia; FIGS. 15A, 15B): significantly decreased
- numbers of microglia (lba-1 positive cells) in the white matter (microglia; FIGS. 15C, 15D): significantly decreased
- expression level of PSD-95 protein in hippocampus [1]: increased
- expression level of synaptophysin-1 protein in hippocampus [1]: increased
- myelin degradation (MBP immunohistostaining) [2]: decreased
- expression level of NMDAR2A protein in hippocampus [3]: significantly increased
- expression level of NMDAR2B protein in hippocampus [3]: significantly increased
- neurological inflammation protein expression, effect vs normal control ([4]; 20 mg/kg, 40 mg/kg, and 80 mg/kg oral): effects similar to or superior to those of the normal control
- expression level of IL-1β protein in hippocampus [4, 5]: decreased
- expression level of IL-18 protein in hippocampus [4, 5]: decreased
- expression level of MyD88 protein in hippocampus [4, 5]: decreased
- expression level of NLRP3 protein in hippocampus [4, 5]: decreased
- expression level of P2X7R protein in hippocampus [4, 5]: decreased
- expression level of TLR4 protein in hippocampus [4, 5]: decreased
- expression level of caspase1 protein in hippocampus [4, 5]: decreased
- expression level of phospho-STAT3 protein in hippocampus ([4]; western blot, compared to the negative control, FIGS. 18A, 18B): decreased
- expression level of NF-κB (p65, p50) proteins in hippocampus ([4]; western blot, compared to the negative control, FIGS. 19A, 19B): decreased
